Laboratory results: publication PMC12006171, “Marsupial cathelicidins: characterization, antimicrobial activity and evolution in this unique mammalian lineage” (Frontiers in Immunology, 2025)
Values after ≈ are worked out from the molar mass of the structure shown. Where two headings read alike, the source gives them in different places. Where a SMILES comes first, the peptide text is derived from it.

How the values were obtained:
Assay in all cases: microbe, parasite or virus in culture
Assay type in all cases: cell-based
[1] = system: Pseudomonas aeruginosa ATCC 27853
Experimental: (§1) Antimicrobial testing of 78 cathelicidin MPs was performed in two phases as outlined in Figure 1 . In phase I, 40 peptides (27 extant and 13 ancestral) were selected for testing based on rank (outlined above) and similarity to published marsupial cathelicidins with known antimicrobial activity ([33], [41]–[43]). These peptides were tested against nine bacteria (Staphylococcus aureus ATCC 29213 and clinical isolate, Escherichia coli ATCC 25922 and clinical isolate, Pseudomonas aeruginosa ATCC 27853 and clinical isolate, Streptococcus agalactiae ATCC 12386 and clinical isolate, Streptococcus pneumoniae ATCC 49619) and three fungi (Candida krusei ATCC 6258, Candida parapsilosis ATCC 22019, and Candida albicans clinical isolate). Details regarding these strains are available in Supplementary Table 4 . The antimicrobial activity of cathelicidins was determined as the minimum inhibitory concentration (MIC), which was the lowest concentration of cathelicidin that prevented visible bacterial or fungal growth, relative to the negative control. […] Minimum bactericidal concentration (MBC) and/or minimum fungicidal concentration (MFC) was conducted to determine microbicidal versus static action. Activity against S. aureus ATCC, E. coli ATCC, and Pseudomonas aeruginosa ATCC 27853 was examined in the presence of divalent cations to determine the impact of inhibitors.
(§2) In phase II, the remaining 38 peptides (37 extant and one ancestral) were tested against six bacteria (S. aureus ATCC and clinical isolate, E. coli ATCC and clinical isolate, and P. aeruginosa ATCC and clinical isolate). […] No further testing on phase II peptides was performed. Detailed methods for all assays are provided in subsequent sections.
(§3) Antimicrobial activity was determined using a broth microdilution susceptibility assay in 96 well polypropylene plates according to Clinical Laboratory Standards Institute guidelines M07-A and M26A as described previously ([33], [42], [43]). The bacterial and fungal isolates from humans and animals used in this study are outlined in Supplementary Table 4 . Only yeasts were included in the panel of fungi as they have been used in the susceptibility testing of eutherian ([3], [81]–[83]) and other marsupial cathelicidins previously ([33], [42], [43]). Cathelicidin mature peptides were solubilized in DMSO and serially diluted in duplicate from 128-0.25μg/mL in a final volume of 100µL. For bacteria, cathelicidins were diluted in Mueller Hinton Broth (MHB) with or without 10% lysed horse blood, and with (MH II B) or without (MHB) calcium and magnesium cations. For fungi, cathelicidins were diluted in Roswell Park Memorial Institute medium (RPMI)-1640 MOPS. Ampicillin or tetracycline were included as a positive control for Gram-positive and -negative bacteria respectively, while amphotericin B was used for fungi. A media-only negative control and growth control (no cathelicidin) were also included on each plate. Bacteria were sub-cultured on Muller Hinton agar (MHA) or sheep blood agar (BA), and fungi on Sabouraud dextrose agar (SAB), 20–24 hours prior to the test. Colonies were suspended in saline, the concentration adjusted to a 0.5 McFarland standard, and then diluted in media to a concentration of 1.0 x 10^6 cells/mL. Then, 100μL was added to each well of the cathelicidin dilution plate, giving a final inoculum density of 5 x 10^5 CFU/mL and cathelicidin concentration of 64-0.125μg/mL. Colony counts were performed on MHA/BA/SAB to confirm inoculum density. All plates were incubated at 35°C for 20–24 hours, depending on the strain.
(§4) Colonies were counted and compared to the colony count of the starting inoculum.

[2] = system: Pseudomonas aeruginosa clinical isolate - animal
Experimental: as §1, §2, §3, §4

[3] = system: Staphylococcus aureus ATCC 29213; details: for MIC: read-out: MIC S. aureus ATCC
Experimental: as §1, §2, §3, §4

[4] = system: Staphylococcus aureus clinical isolate - animal; details: for MIC: read-out: MIC S. aureus
Experimental: as §1, §2, §3, §4

[5] = system: Escherichia coli ATCC 25922; details: for MIC: read-out: MIC E. coli ATCC
Experimental: as §1, §2, §3, §4

[6] = system: Escherichia coli clinical isolate - animal
Experimental: as §1, §2, §3, §4

[7] = ATCC 27853, read-out: MIC P. aeruginosa ATCC
[8] = clinical isolate - animal, read-out: MIC P. aeruginosa
[9] = clinical isolate, µM equivalent of Table 3

For `CC[C@H](C)[C@H](NC(=O)[C@H](CCCNC(=N)N)NC(=O)[C@H](CCCNC(=N)N)NC(=O)[C@H](C)N)C(=O)N[C@@H](CCCNC(=N)N)C(=O)N[C@@H](CCCNC(=N)N)C(=O)N1CCC[C@H]1C(=O)N[C@@H](Cc1ccc(O)cc1)C(=O)N[C@@H](CC(C)C)C(=O)N1CCC[C@H]1C(=O)N[C@@H](CCCNC(=N)N)C(=O)N1CCC[C@H]1C(=O)N[C@@H](CCCNC(=N)N)C(=O)N1CCC[C@H]1C(=O)N[C@@H](CCCNC(=N)N)C(=O)N1CCC[C@H]1C(=O)N[C@@H](CC(N)=O)C(=O)N[C@@H](Cc1ccccc1)C(=O)N1CCC[C@H]1C(=O)N1CCC[C@H]1C(=O)N1CCC[C@H]1C(=O)N[C@@H](CCCNC(=N)N)C(=O)N1CCC[C@H]1C(=O)N[C@@H](CCCNC(=N)N)C(=O)N1CCC[C@H]1C(=O)NCC(=O)N[C@@H](CCCNC(=N)N)C(=O)N[C@@H](CO)C(=O)N[C@H](C(=O)O)C(C)C` [AnstCath2] (H-ARRIRRPYLPRPRPRPNFPPPRPRPGRSV-OH), the MIC [1, 7] was over 18.2 µM, the MIC [2, 8] was over 18.2 µM and the MIC ([3]; ATCC 29213) was over 18.2 µM. It also gave an MIC ([4]; clinical isolate - animal) of over 18.2 µM, an MBC E. coli ATCC ([5]; ATCC 25922) of 4.5 µM (≈ 15.8 µg/mL) and an MIC E. coli ATCC ([5]; ATCC 25922) of 4.5 µM (≈ 15.8 µg/mL). For the same molecule, the “MBC E. coli” value ([6]; clinical isolate - animal) was 18.2 µM (≈ 64 µg/mL) and the MIC ([6]; clinical isolate - animal) was 9.1 µM (≈ 32 µg/mL).
With `CC[C@H](C)[C@H](NC(=O)[C@H](CC(N)=O)NC(=O)[C@H](CCCNC(=N)N)NC(=O)[C@H](CC(C)C)NC(=O)[C@H](CCCCN)NC(=O)[C@H](CCCNC(=N)N)NC(=O)[C@H](Cc1ccccc1)NC(=O)[C@@H](NC(=O)[C@H](CC(N)=O)NC(=O)[C@H](CCC(N)=O)NC(=O)[C@H](CC(C)C)NC(=O)[C@@H](NC(=O)[C@H](CCCNC(=N)N)NC(=O)[C@H](Cc1ccc(O)cc1)NC(=O)[C@H](CCCCN)NC(=O)[C@H](CCC(N)=O)NC(=O)[C@H](Cc1ccc(O)cc1)NC(=O)[C@@H](NC(=O)[C@H](CC(C)C)NC(=O)[C@@H](N)CC(N)=O)[C@@H](C)CC)[C@@H](C)CC)C(C)C)C(=O)N[C@@H](Cc1ccccc1)C(=O)N[C@@H](CO)C(=O)N[C@@H](CCCNC(=N)N)C(=O)NCC(=O)N[C@@H](CCCNC(=N)N)C(=O)N[C@@H](CC(=O)O)C(=O)N[C@@H](CC(=O)O)C(=O)N[C@@H](CCCCN)C(=O)N[C@@H](CCC(=O)O)C(=O)O` [MaruCath9] (H-NLIYQKYRILQNVFRKLRNIFSRGRDDKE-OH) the MIC [1, 7] was over 17.3 µM, the MIC [2, 8] was over 17.3 µM and the MBC S. aureus ATCC ([3]; ATCC 29213) was 8.6 µM (≈ 31.7 µg/mL). The MIC S. aureus ATCC ([3]; ATCC 29213) was 8.6 µM (≈ 31.7 µg/mL), the MBC S. aureus ([4]; clinical isolate - animal) was 8.6 µM (≈ 31.7 µg/mL) and the MIC S. aureus ([4]; clinical isolate - animal) was 8.6 µM (≈ 31.7 µg/mL). It also gave an MIC ([5]; ATCC 25922) of over 17.3 µM and an MIC ([6]; clinical isolate - animal) of over 17.3 µM.
`CC[C@H](C)[C@H](NC(=O)[C@H](CO)NC(=O)[C@H](CCCNC(=N)N)NC(=O)CNC(=O)[C@@H]1CCCN1C(=O)[C@H](CCCNC(=N)N)NC(=O)[C@@H]1CCCN1C(=O)[C@H](CCCNC(=N)N)NC(=O)[C@@H]1CCCN1C(=O)[C@H](CCCNC(=N)N)NC(=O)[C@@H]1CCCN1C(=O)[C@H](Cc1ccccc1)NC(=O)[C@H](CC(N)=O)NC(=O)[C@@H]1CCCN1C(=O)[C@H](CCCNC(=N)N)NC(=O)[C@@H]1CCCN1C(=O)[C@H](Cc1ccccc1)NC(=O)[C@H](CCCNC(=N)N)NC(=O)[C@@H]1CCCN1C(=O)[C@H](CCCNC(=N)N)NC(=O)[C@@H]1CCCN1C(=O)[C@H](CC(C)C)NC(=O)[C@H](Cc1ccc(O)cc1)NC(=O)[C@@H]1CCCN1C(=O)[C@H](CCCNC(=N)N)NC(=O)[C@H](CCCNC(=N)N)NC(=O)[C@@H](NC(=O)[C@H](CCCNC(=N)N)NC(=O)[C@H](CCCNC(=N)N)NC(=O)[C@H](C)NC(=O)[C@H](C)NC(=O)[C@H](CC(C)C)NC(=O)[C@H](CC(C)C)NC(=O)CN)[C@@H](C)CC)C(=O)O` [SmcrCath12] (H-GLLAARRIRRPYLPRPRFPRPNFPRPRPRPGRSI-OH) was tested, and the MIC ([1]; µM equivalent of Table 3, read-out: MIC P. aeruginosa ATCC) was over 15.6 µM, the MIC ([2]; clinical isolate, µM equivalent of Table 3, read-out: MIC P. aeruginosa) was over 15.6 µM and the MIC ([3]; µM equivalent of Table 3) was over 15.6 µM. The MIC [4, 9] was over 15.6 µM, the MBC E. coli ATCC ([5]; value in brackets, µM equivalent of Table 3) was 1.9 µM and the MIC E. coli ATCC ([5]; µM equivalent of Table 3) was 1.9 µM. The MBC E. coli ([6]; clinical isolate, value in brackets, µM equivalent of Table 3) was 3.9 µM and the MIC E. coli [6, 9] was 3.9 µM.
In the case of `CC[C@H](C)[C@H](NC(=O)[C@H](C)NC(=O)[C@H](CC(N)=O)NC(=O)[C@H](CCCCN)NC(=O)[C@@H](NC(=O)[C@@H](NC(=O)[C@H](CC(N)=O)NC(=O)[C@H](CCCCN)NC(=O)[C@@H](NC(=O)[C@H](CCCCN)NC(=O)[C@H](CC(=O)O)NC(=O)CNC(=O)[C@H](C)NC(=O)[C@H](CCCNC(=N)N)NC(=O)[C@H](CCCCN)NC(=O)[C@H](CC(C)C)NC(=O)[C@H](Cc1ccccc1)NC(=O)[C@H](CC(N)=O)NC(=O)[C@H](CCCCN)NC(=O)[C@H](Cc1ccccc1)NC(=O)[C@H](CCCCN)NC(=O)[C@H](CCC(=O)O)NC(=O)[C@H](Cc1ccccc1)NC(=O)[C@@H](NC(=O)[C@H](CCCNC(=N)N)NC(=O)[C@H](CC(C)C)NC(=O)[C@H](CCCCN)NC(=O)[C@H](CCCCN)NC(=O)[C@@H](NC(=O)[C@H](CC(N)=O)NC(=O)[C@H](CCC(=O)O)NC(=O)[C@@H]1CCCN1C(=O)[C@@H](N)CCCNC(=N)N)[C@@H](C)CC)C(C)C)[C@@H](C)CC)[C@@H](C)O)[C@@H](C)CC)C(=O)N[C@@H](CC(N)=O)C(=O)N[C@@H](CC(N)=O)C(=O)N[C@@H](CC(C)C)C(=O)N[C@@H](Cc1ccccc1)C(=O)N[C@@H](CO)C(=O)O` [PeguCath3] (H-RPENIKKLRVFEKFKNFLKRAGDKIKNTIKNAINNLFS-OH), the MIC [1, 7] is reported as over 14.1 µM, the MIC [2, 8] is reported as over 14.1 µM and the MIC ([3]; ATCC 29213) is reported as over 14.1 µM. It also gave an MIC ([4]; clinical isolate - animal) of over 14.1 µM, an MIC ([5]; ATCC 25922) of 14.1 µM (≈ 63.9 µg/mL) and an MIC ([6]; clinical isolate - animal) of over 14.1 µM.
Work on `CN(C)[C@@H]1C(O)=C(C(N)=O)C(=O)[C@@]2(O)C(O)=C3C(=O)c4c(O)cccc4[C@@](C)(O)[C@H]3C[C@@H]12` [Tetracycline, reference compound] yielded an MIC ([1]; Pseudomonas aeruginosa, ATCC27853, MHB without cations, 5 x 10^5 CFU/mL, 35°C 20–24 hours, duplicate, read-out: MIC P. aeruginosa ATCC) of 32 µg/mL, an MIC ([1]; Pseudomonas aeruginosa, ATCC27853, superscript value, cation-adjusted Mueller Hinton broth, read-out: MIC in the presence of cations P. aeruginosa ATCC) of 32 µg/mL and an MIC ([1]; Pseudomonas aeruginosa, ATCC27853, superscript value, cation-adjusted Mueller Hinton broth, µM equivalent, read-out: MIC in the presence of cations P. aeruginosa ATCC) of 72 µM. The MIC ([1]; Pseudomonas aeruginosa, ATCC27853, µM equivalent of Table 3, read-out: MIC P. aeruginosa ATCC) was 72 µM, the MIC ([2]; Pseudomonas aeruginosa, clinical isolate, MHB without cations, 5 x 10^5 CFU/mL, 35°C 20–24 hours, duplicate, read-out: MIC P. aeruginosa) was 32 µg/mL and the MIC ([2]; Pseudomonas aeruginosa, clinical isolate, superscript value, cation-adjusted Mueller Hinton broth, read-out: MIC in the presence of cations P. aeruginosa) was 32 µg/mL. For the same molecule, the MIC ([2]; Pseudomonas aeruginosa, clinical isolate, superscript value, cation-adjusted Mueller Hinton broth, µM equivalent, read-out: MIC in the presence of cations P. aeruginosa) was 72 µM and the MIC ([2]; Pseudomonas aeruginosa, clinical isolate, µM equivalent of Table 3, read-out: MIC P. aeruginosa) was 72 µM.
